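96-well plates; 48 h exposure; 5 concentrations. Endpoints by linear interpolation between flanking doses. Not reached: highest tested concentration assigned. GI50 marks 50% less growth. The concentration for full growth arrest is given as TGI.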
What was measured:
Assay in all cases: NCI tumour cell line growth inhibition, 48 h
MALME-3M melanoma = system: MALME-3M melanoma
K-562 leukemia = system: K-562 leukemia
SF-539 CNS = system: SF-539 CNS
RXF 393 renal = system: RXF 393 renal
NCI-H226 lung = system: NCI-H226 lung
RPMI-8226 leukemia = system: RPMI-8226 leukemia
SF-268 CNS = system: SF-268 CNS
SK-MEL-5 melanoma = system: SK-MEL-5 melanoma
T-47D breast = system: T-47D breast
EKVX NSCLC = system: EKVX NSCLC
OVCAR-4 ovarian = system: OVCAR-4 ovarian
U251 CNS = system: U251 CNS
MOLT-4 leukemia = system: MOLT-4 leukemia
MCF7 breast = system: MCF7 breast
DU-145 prostate = system: DU-145 prostate
A549 NSCLC = system: A549 NSCLC
SF-295 CNS = system: SF-295 CNS
CCRF-CEM leukemia = system: CCRF-CEM leukemia
UACC-257 melanoma = system: UACC-257 melanoma
M14 melanoma = system: M14 melanoma
A498 renal = system: A498 renal
UACC-62 melanoma = system: UACC-62 melanoma
HCC-2998 colon = system: HCC-2998 colon
NCI-H460 lung = system: NCI-H460 lung
HOP-62 NSCLC = system: HOP-62 NSCLC
MDA-MB-231 breast = system: MDA-MB-231 breast
PC-3 prostate = system: PC-3 prostate
TK-10 renal = system: TK-10 renal
SNB-75 CNS = system: SNB-75 CNS
OVCAR-5 ovarian = system: OVCAR-5 ovarian
KM12 colon = system: KM12 colon
UO-31 renal = system: UO-31 renal
NCI/ADR-RES ovarian = system: NCI/ADR-RES ovarian
SNB-19 CNS = system: SNB-19 CNS
HCT-116 colon = system: HCT-116 colon
HS 578T breast = system: HS 578T breast
HCT-15 colon = system: HCT-15 colon
NCI-H522 lung = system: NCI-H522 lung
SN12C renal = system: SN12C renal
HT29 colon = system: HT29 colon
CAKI-1 renal = system: CAKI-1 renal
OVCAR-3 ovarian = system: OVCAR-3 ovarian
SK-MEL-2 melanoma = system: SK-MEL-2 melanoma
ACHN renal = system: ACHN renal
NCI-H23 lung = system: NCI-H23 lung
HL-60(TB) leukemia = system: HL-60(TB) leukemia
HOP-92 NSCLC = system: HOP-92 NSCLC
IGROV1 ovarian = system: IGROV1 ovarian
SR leukemia = system: SR leukemia
COLO 205 colon = system: COLO 205 colon
OVCAR-8 ovarian = system: OVCAR-8 ovarian
BT-549 breast = system: BT-549 breast
LOX IMVI melanoma = system: LOX IMVI melanoma
MDA-MB-435 = system: MDA-MB-435
SK-OV-3 ovarian = system: SK-OV-3 ovarian
786-0 renal = system: 786-0 renal
SK-MEL-28 melanoma = system: SK-MEL-28 melanoma

Q: Which results are given for `O=S1(=O)CC(Br)C(Br)C1` (centres undefined)?
A: GI50 (MALME-3M melanoma): 3.91 µM; TGI (MALME-3M melanoma): 13.1 µM; GI50 (K-562 leukemia): 3.79 µM; TGI (K-562 leukemia): 14.2 µM; GI50 (SF-539 CNS): 13.6 µM; TGI (SF-539 CNS): 54.4 µM; GI50 (RXF 393 renal): 1.11 µM; TGI (RXF 393 renal): 2.64 µM; GI50 (NCI-H226 lung): 1.49 µM; TGI (NCI-H226 lung): 11.2 µM; GI50 (RPMI-8226 leukemia): 12.3 µM; TGI (RPMI-8226 leukemia): 41.2 µM; GI50 (SF-268 CNS): 21.5 µM; TGI (SF-268 CNS): > 100 µM; GI50 (SK-MEL-5 melanoma): 2.3 µM; TGI (SK-MEL-5 melanoma): 10.3 µM; GI50 (T-47D breast): 3.16 µM; TGI (T-47D breast): 13.6 µM; GI50 (EKVX NSCLC): 18.5 µM; TGI (EKVX NSCLC): 49.8 µM; GI50 (OVCAR-4 ovarian): 3.11 µM; TGI (OVCAR-4 ovarian): 18.4 µM; GI50 (U251 CNS): 7.28 µM; TGI (U251 CNS): 23.6 µM; GI50 (MOLT-4 leukemia): 3.27 µM; TGI (MOLT-4 leukemia): 16.2 µM; GI50 (MCF7 breast): 2.72 µM; TGI (MCF7 breast): 11.7 µM; GI50 (DU-145 prostate): 4.21 µM; TGI (DU-145 prostate): 15.9 µM; GI50 (A549 NSCLC): 13.5 µM; TGI (A549 NSCLC): 28.9 µM; GI50 (SF-295 CNS): 24.5 µM; TGI (SF-295 CNS): > 100 µM; GI50 (CCRF-CEM leukemia): 1.6 µM; TGI (CCRF-CEM leukemia): 8.95 µM; GI50 (UACC-257 melanoma): 4.94 µM; TGI (UACC-257 melanoma): 51.2 µM; GI50 (M14 melanoma): 5.67 µM; TGI (M14 melanoma): 20.8 µM; GI50 (A498 renal): 25.1 µM; TGI (A498 renal): 55.1 µM; GI50 (UACC-62 melanoma): 5.39 µM; TGI (UACC-62 melanoma): 18.7 µM; GI50 (HCC-2998 colon): 14.9 µM; TGI (HCC-2998 colon): 28.9 µM; GI50 (NCI-H460 lung): 20.4 µM; TGI (NCI-H460 lung): 61.8 µM; GI50 (HOP-62 NSCLC): 12.7 µM; TGI (HOP-62 NSCLC): 27.6 µM; GI50 (MDA-MB-231 breast): 3.15 µM; TGI (MDA-MB-231 breast): 10.3 µM; GI50 (PC-3 prostate): 10.7 µM; TGI (PC-3 prostate): 26.3 µM; GI50 (TK-10 renal): 3.77 µM; TGI (TK-10 renal): 11.9 µM; GI50 (SNB-75 CNS): 5.25 µM; TGI (SNB-75 CNS): 19.1 µM; GI50 (OVCAR-5 ovarian): 15.8 µM; TGI (OVCAR-5 ovarian): 54.9 µM; GI50 (KM12 colon): 13.4 µM; TGI (KM12 colon): 32.4 µM; GI50 (UO-31 renal): 3.77 µM; TGI (UO-31 renal): 14.7 µM; GI50 (NCI/ADR-RES ovarian): 5.26 µM; TGI (NCI/ADR-RES ovarian): > 100 µM; GI50 (SNB-19 CNS): 29.4 µM; TGI (SNB-19 CNS): > 100 µM; GI50 (HCT-116 colon): 2.34 µM; TGI (HCT-116 colon): 6.53 µM; GI50 (HS 578T breast): 5.5 µM; TGI (HS 578T breast): 76.3 µM; GI50 (HCT-15 colon): 2.64 µM; TGI (HCT-15 colon): 7.24 µM; GI50 (NCI-H522 lung): 1.99 µM; TGI (NCI-H522 lung): 3.86 µM; GI50 (SN12C renal): 4.07 µM; TGI (SN12C renal): 17.4 µM; GI50 (HT29 colon): 3.71 µM; TGI (HT29 colon): 11.3 µM; GI50 (CAKI-1 renal): 3.12 µM; TGI (CAKI-1 renal): 11.8 µM; GI50 (OVCAR-3 ovarian): 2.77 µM; TGI (OVCAR-3 ovarian): 7.82 µM; GI50 (SK-MEL-2 melanoma): 8.74 µM; TGI (SK-MEL-2 melanoma): 28.6 µM; GI50 (ACHN renal): 2.61 µM; TGI (ACHN renal): 6.72 µM; GI50 (NCI-H23 lung): 7.88 µM; TGI (NCI-H23 lung): 26 µM; GI50 (HL-60(TB) leukemia): 3.5 µM; TGI (HL-60(TB) leukemia): 8.75 µM; GI50 (HOP-92 NSCLC): 2.35 µM; TGI (HOP-92 NSCLC): 7.43 µM; GI50 (IGROV1 ovarian): 10.6 µM; TGI (IGROV1 ovarian): 28.6 µM; GI50 (SR leukemia): 3.58 µM; TGI (SR leukemia): 21.6 µM; GI50 (COLO 205 colon): 1.61 µM; TGI (COLO 205 colon): 3.17 µM; GI50 (OVCAR-8 ovarian): 4.85 µM; TGI (OVCAR-8 ovarian): 18.4 µM; GI50 (BT-549 breast): 5.4 µM; TGI (BT-549 breast): 18.5 µM; GI50 (LOX IMVI melanoma): 0.628 µM; TGI (LOX IMVI melanoma): 10 µM; GI50 (MDA-MB-435): 4.16 µM; TGI (MDA-MB-435): 18.6 µM; GI50 (SK-OV-3 ovarian): 23.2 µM; TGI (SK-OV-3 ovarian): 90 µM; GI50 (786-0 renal): 10.5 µM; TGI (786-0 renal): 25.5 µM; GI50 (SK-MEL-28 melanoma): 3.64 µM; TGI (SK-MEL-28 melanoma): 13.7 µM

Source: PubChem BioAssay (NCI)
